For experiment [1], the target named is T1, Amine oxidase [flavin-containing] B (Homo sapiens, UniProt P27338).
T1 sequence (P27338 whole entry): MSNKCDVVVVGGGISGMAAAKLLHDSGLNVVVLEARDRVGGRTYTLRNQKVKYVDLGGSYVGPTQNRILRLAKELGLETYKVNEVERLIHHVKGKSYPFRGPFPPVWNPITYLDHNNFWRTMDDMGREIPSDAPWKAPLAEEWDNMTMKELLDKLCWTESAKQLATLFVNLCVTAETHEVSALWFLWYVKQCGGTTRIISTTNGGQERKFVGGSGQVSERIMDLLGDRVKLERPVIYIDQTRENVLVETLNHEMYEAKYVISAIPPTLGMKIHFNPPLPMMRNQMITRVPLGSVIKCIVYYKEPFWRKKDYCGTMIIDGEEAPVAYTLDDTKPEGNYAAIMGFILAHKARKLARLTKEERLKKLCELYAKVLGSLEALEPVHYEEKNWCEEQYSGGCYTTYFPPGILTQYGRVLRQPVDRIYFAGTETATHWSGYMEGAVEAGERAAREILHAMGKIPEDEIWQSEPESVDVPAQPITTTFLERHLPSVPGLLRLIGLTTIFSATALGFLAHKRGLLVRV
The experiment is described as follows: biochemical. It counts as cell-based, BTI-TN-5B1-4.
Description: Inhibition of human MAO-B expressed in baculovirus infected BTI-TN-5B1-4 insect cells using p-tyramine as substrate assessed as hydrogen peroxide production by fluorimetric method

In experiment [2] the target is T2, Amine oxidase [flavin-containing] A (Homo sapiens, UniProt P21397).
T2 sequence (P21397 whole entry): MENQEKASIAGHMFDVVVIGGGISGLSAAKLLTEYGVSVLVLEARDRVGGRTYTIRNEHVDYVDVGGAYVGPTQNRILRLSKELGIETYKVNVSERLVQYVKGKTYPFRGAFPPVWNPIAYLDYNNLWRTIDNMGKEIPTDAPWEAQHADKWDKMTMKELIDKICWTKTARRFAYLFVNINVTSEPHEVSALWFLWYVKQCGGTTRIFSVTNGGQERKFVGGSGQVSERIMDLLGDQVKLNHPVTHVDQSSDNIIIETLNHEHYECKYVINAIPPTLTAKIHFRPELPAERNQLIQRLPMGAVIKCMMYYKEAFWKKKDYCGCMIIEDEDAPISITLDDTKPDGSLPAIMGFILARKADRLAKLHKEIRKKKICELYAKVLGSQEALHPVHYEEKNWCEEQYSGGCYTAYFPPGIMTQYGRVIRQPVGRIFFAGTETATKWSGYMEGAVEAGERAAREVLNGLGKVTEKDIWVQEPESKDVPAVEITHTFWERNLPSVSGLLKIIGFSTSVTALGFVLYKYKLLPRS
The experiment is described as follows: Inhibition of human MAO-A expressed in baculovirus infected BTI-TN-5B1-4 insect cells using p-tyramine as substrate assessed as hydrogen peroxide production by fluorimetric method.

The next experiment is filed under the species Homo sapiens. The experiment is described as follows: Selectivity index, ratio of IC50 for human MAO-B to IC50 for human MAO-A.

Each structure is given as a SMILES string.

Consider 24 compounds from ChEMBL document CHEMBL3217581, “Synthesis and selective inhibition of human monoamine oxidases of a large scaffold of (4,5-substituted-thiazol-2-yl)hydrazones” (Medchemcomm, 2010).

What is called IC50 is the midpoint of a concentration-inhibition curve.

Consider `CCCCC/C(C)=N\Nc1nc(-c2ccccc2)c(C)s1`, for which the IC50 in experiment [1] was determined as 6000 nM; in experiment [2], 3690 nM. Also, the Ratio IC50 in the experiment filed under Homo sapiens is 1.64.
The like results for `C/C(=N\Nc1nc(-c2ccc3ccccc3c2)cs1)c1cc2ccccc2oc1=O` were, in that order, 10800 nM, 6470 nM and 1.67.
The like results for `C(=N\Nc1nc(-c2ccc3ccccc3c2)cs1)/c1cccs1` were, in that order, 4630 nM, 2710 nM and 1.72.
For `C(=N\Nc1nc(-c2ccc3ccccc3c2)cs1)/c1cccc2ccccc12`, in that order: 22900 nM, 16400 nM and 1.41.
With `Cc1sc(NN=C2CCC(C)CC2)nc1-c1ccccc1` (configuration not stated), the concentration for half-maximal inhibition (IC50) in experiment [1] (bti-tn-5b1-4) was determined as 2520 nM; in experiment [2] (bti-tn-5b1-4), 3900 nM. For the same compound, in the experiment listed under Homo sapiens, the Ratio IC50 was determined as 0.66.
For `C/C(=N\Nc1nc(-c2ccccc2)c(C)s1)c1ccccn1`, the results for the IC50 in experiment [1] and in experiment [2] were 880 nM and 2390 nM, respectively. For the same compound, the Ratio IC50 in the experiment filed under Homo sapiens worked out at 0.37.
For `Cc1sc(N/N=C/c2cccnc2)nc1-c1ccccc1`, in that order: 2220 nM, 1830 nM and 1.22.
For `CCC/C(C)=N\Nc1nc(-c2ccc3ccccc3c2)cs1`, in that order: 3110 nM, 1810 nM and 1.72.
As for `C/C(=N\Nc1nc(-c2ccc3ccccc3c2)cs1)c1ccccc1`, the results for the IC50 in experiment [1] and in experiment [2] were 6230 nM and 2000 nM, respectively. Also, the Ratio IC50 in the experiment listed under Homo sapiens stood at 3.13.
The like results for `C/C(=N\Nc1nc(-c2ccccc2)c(C)s1)c1cccs1` were, in that order, 2340 nM, 2670 nM and 0.9.
As for `CCCC/C(CC)=N\Nc1nc(-c2ccccc2)c(C)s1`, the results for the IC50 in experiment [1] and in experiment [2] were 4780 nM and 4130 nM, respectively. Moreover, the Ratio IC50 in the experiment listed under Homo sapiens turned out to be 1.16.
Turning to `Cc1sc(N/N=C2\CCCCC2C)nc1-c1ccccc1` (configuration not stated), the IC50 in experiment [1] was 1110 nM; in experiment [2] it was 3230 nM. In addition, the Ratio IC50 in the experiment listed under Homo sapiens stood at 0.34.
The like results for `Cc1sc(N/N=C/c2ccco2)nc1-c1ccccc1` were, in that order, 3060 nM, 1790 nM and 1.72.
Regarding `C/C(=N\Nc1nc(-c2ccccc2)c(C)s1)c1ccco1`, the IC50 was 2100 nM in experiment [1] and 1680 nM in experiment [2]. Moreover, the Ratio IC50 in the experiment filed under Homo sapiens came out at 1.25.
For `CCCC/C(CC)=N\Nc1nc(-c2ccc3ccccc3c2)cs1`, the IC50 in experiment [1] turned out to be 3760 nM; in experiment [2], 2930 nM. Moreover, the Ratio IC50 in the experiment listed under Homo sapiens is 1.28.
The like results for `Cc1sc(N/N=C2\CCC(C)C2)nc1-c1ccccc1` (configuration not stated) were, in that order, 2310 nM, 2290 nM and 1.01.
The like results for `Cc1sc(NN=C2CCCCC2)nc1-c1ccccc1` were, in that order, 1790 nM, 1780 nM and 1.01.
For `Cc1sc(N/N=C/c2c[nH]c3ccccc23)nc1-c1ccccc1`, in that order: 1400 nM, 3120 nM and 0.45.
`C/C(CC(C)C)=N/Nc1nc(-c2ccccc2)c(C)s1`: the IC50 in experiment [1] is 2780 nM; in experiment [2] it was 2400 nM. In addition, in the experiment filed under Homo sapiens, the Ratio IC50 stood at 1.16.
Consider `Cc1sc(N/N=C2\CCCC2C)nc1-c1ccccc1` (configuration not stated), for which the results for the IC50 in experiment [1] and in experiment [2] were 1330 nM and 2440 nM, respectively. Also, in the experiment listed under Homo sapiens, the Ratio IC50 was 0.56.
For `Cc1sc(N/N=C2\CCCC(C)C2)nc1-c1ccccc1` (configuration not stated), in that order: 2880 nM, 3630 nM and 0.76.
For `C=CCC/C(C)=N\Nc1nc(-c2ccccc2)c(C)s1`, in that order: 8850 nM, 6970 nM and 1.27.
The like results for `CC(C)=NNc1nc(-c2ccc3ccccc3c2)cs1` were, in that order, 3550 nM, 1560 nM and 2.27.
Consider `CCCCCC/C(C)=N\Nc1nc(-c2ccccc2)c(C)s1`, for which the IC50 is 3750 nM in experiment [1] and 3910 nM in experiment [2]. Besides, the Ratio IC50 in the experiment listed under Homo sapiens stood at 1.04.
